Reference: patent US20260183270A1, “PHARMACEUTICAL COMPOSITION COMPRISING AAK1 INHIBITOR” (Xizang Haisco Pharmaceutical Co., Ltd., priority 2022, published 2026)

Tests used:
[1] = biological target: T1, AAK1 (Homo sapiens, UniProt Q2M2I8); assay: In vitro AAK1 enzyme activity assay (ADP-Glo); format: biochemical; details: read-out: Inhibitory activity against AAK1 IC50
T1 construct: purchased Signalchem A01-11G-10
Experimental: Compound stock solution (concentration: 10 mM, dissolved in DMSO) was diluted with DMSO to 0.2 mM and then diluted with DMSO in 5-fold gradient to obtain compound solutions with 10 concentrations. Subsequently, the compound solutions with different concentrations were diluted 50-fold in 1× kinase reaction buffer (containing 40 mM Tris, 20 mM MgCl2, 0.1% BSA and 0.5 mM DTT) for later use. AAK1 (Signalchem, Cat #A01-11G-10) was diluted with 1× kinase reaction buffer to 2-fold the final concentration (final concentrations: 30 nM and 28 nM). AAK1 was added to a 384-well white plate at 2 μL/well, and the compounds were then added at 1 μL/well. The plate was sealed with a plate-sealing film, centrifuged at 1000 rpm for 30 seconds and then placed at room temperature for 10 minutes. […] The RLU (Relative luminescence unit) signal values were read using a Biotek multimode microplate reader and the percent inhibition was calculated according to the following formula: [1−(LUMcompound−LUMpositive control)/(LUMnegative control−LUMpositive control)]×100. IC50 values were calculated using Graphpad 7.0 software using a four-parameter non-linear fit equation.

[2] = biological target: T2, hERG potassium channel (Homo sapiens, UniProt Q12809); assay: Test for hERG potassium ion channel (manual whole cell patch-clamp, CHO cells); format: cell-based
T2 construct: expressed in transfected cells
Text: Experimental platform: electrophysiological manual patch-clamp system
Cell line: Chinese hamster ovary (CHO) cell line stably expressing hERG potassium ion channel
Experimental method: in CHO (Chinese Hamster Ovary) cells stably expressing hERG potassium channel, the whole cell patch-clamp technique was used to record hERG potassium channel current at room temperature. The glass microelectrode was made of a glass electrode blank (BF150-86-10, Sutter) by a puller. The tip resistance after filling the liquid in the electrode was about 2-5 MΩ. The glass microelectrode can be connected to the patch-clamp amplifier by inserting the glass microelectrode into an amplifier probe. The clamping voltage and data recording were controlled and recorded by the pClamp 10 software through a computer. The sampling frequency was 10 kHz, and the filtering frequency was 2 kHz. […]
Data processing: data analysis processing was carried out by using pClamp 10, GraphPad Prism 5 and Excel software. The inhibition degree of hERG potassium current (peak value of hERG tail current induced at −50 mV) at different compound concentrations was calculated by the following formula: […]
Compound IC50 was calculated using GraphPad Prism 5 software by fitting according to the following equation: […]

[3] = tested on: SNL-induced mouse model of neuropathic pain; assay: Spinal nerve ligation (SNL)-induced mouse model of neuropathic pain, mechanical pain threshold (Von Frey); format: in vivo, C57BL/6J mice; details: for Course of analgesic efficacy over time / Effect on pain threshold (MPT) of mice after SNL modeling: 10 mg/kg intragastric; for Course of analgesic efficacy over time: 1 to 6 hours after administration; for Effect on pain threshold (MPT) of mice after SNL modeling: single administration, 1, 3 and 6 hours after administration
Text: Male C57BL/6J mice (8 weeks old) purchased from Jinan Pengyue Experimental Animal Breeding Co., Ltd. were adaptively raised for one week and then the models were established. The specific establishment method comprises the following steps: • 1) disinfecting the surgical instrument and ligature; • 2) anesthetizing the mice with isoflurane and then placing the mice on the operating table in the prone position; • 3) shaving the fur near the hip bones of the mice and preparing the skin, and making an incision of about 2 cm along the spine; • 4) isolating the fascia along the spine, performing blunt dissection of the muscles, and exposing the transverse process of L5; • 5) carefully cutting the transverse process of L5 with forceps and exposing the L5 spinal nerve; • 6) carefully isolating the L5 nerve with a glass dissecting needle, and ligating the L5 nerve with a 5-0 ligature; and • 7) suturing the muscles and skin and disinfecting same with iodophor.
The mice that were unsuccessful in modeling were eliminated the next day after modeling (marker for successful modeling: mice with their hind paws curled up). After modeling, the mice were stroked for 3 to 5 minutes every day to ensure that the animals were familiar with the experimenter, and then the mice were placed on a metal pain measuring frame for 40 to 60 minutes of adaptation. After 3 days of acclimatization, Von Frey filaments (Aesthesio®; 0.16 g, 0.4 g, 0.6 g, 1.0 g, 1.4 g and 2.0 g) were used to test the pre-administration baseline values of the animals (Ascending testing approach). Each animal was tested twice and average values were taken, with intervals of at least 5 minutes. The animals were grouped according to the baseline values (10 animals per group). After the grouping, LX-9211 (1 and 10 mg/kg), compound 2 (1 and 10 mg/kg) or vehicle (40% PEG-400+10% ethanol+15% Tween 80+35% physiological saline) was administered intragastrically. The mice were tested for the mechanical pain threshold (MPT) at 1, 3 and 6 hours after the administration. Time-MPT curve was plotted using GraphPad 8.3.0, and statistical analysis was performed.

[4] = Mouse brain/blood ratio test; format: in vivo, ICR mice; details: mice
Experimental: male ICR mice, 20 to 25 g, 9 mice/compound. purchased from Chengdu Ddossy Experimental Animals Co., Ltd.
on the day of the experiment, 18 ICR mice were randomly grouped according to their body weights. The animals were fasted with water available for 12 to 14 h one day before the administration and were fed 4 h after the administration.
After intragastric administration, whole blood and brain tissue were collected at 0.5 h, 4 h and 24 h, and the whole blood was centrifuged to separate the plasma. The brain tissue was rinsed with cold physiological saline to remove the residual blood on the surface, drained out and then homogenized. Before analysis and detection, all samples were stored at −80 C, and the samples were quantitatively analyzed by LC-MS/MS.

[5] = Pharmacokinetic test of dogs; format: in vivo; details: beagle dogs, i.g. (3 mg/kg)
Experimental: Experimental animals: male beagle dogs, about 8 to 11 kg, 6 beagle dogs/compound, purchased from Beijing Marshall Biotechnology Co., Ltd.
Experimental method: on the day of the experiment, 12 beagle dogs were randomly grouped according to their body weights. The animals were fasted with water available for 12 to 14 h one day before the administration and were fed 4 h after the administration. Administration was performed as per Table 2.
Before and after the administration, 1 ml of blood was taken from the jugular veins or limb veins, and placed in an EDTAK2 centrifuge tube. Centrifugation was performed at 5000 rpm at 4° C. for 10 min, and plasma was collected. Blood sampling time points for both the LX9211 intravenous administration group and intragastric administration group include: 0 min, 5 min, 15 min, 30 min, 1 h, 2 h, 4 h, 6 h, 8 h, 10 h, 12 h, and 24 h, and blood sampling time points for both the compound 9 intravenous administration group and intragastric administration group include: 0 min, 5 min, 15 min, 30 min, 1 h, 2 h, 4 h, 6 h, 8 h, 10 h, 12 h, 24 h, and 48 h. Before analysis and detection, all samples were stored at −80° C., and the samples were quantitatively analyzed by LC-MS/MS.

T2 sequence (Q12809 whole entry): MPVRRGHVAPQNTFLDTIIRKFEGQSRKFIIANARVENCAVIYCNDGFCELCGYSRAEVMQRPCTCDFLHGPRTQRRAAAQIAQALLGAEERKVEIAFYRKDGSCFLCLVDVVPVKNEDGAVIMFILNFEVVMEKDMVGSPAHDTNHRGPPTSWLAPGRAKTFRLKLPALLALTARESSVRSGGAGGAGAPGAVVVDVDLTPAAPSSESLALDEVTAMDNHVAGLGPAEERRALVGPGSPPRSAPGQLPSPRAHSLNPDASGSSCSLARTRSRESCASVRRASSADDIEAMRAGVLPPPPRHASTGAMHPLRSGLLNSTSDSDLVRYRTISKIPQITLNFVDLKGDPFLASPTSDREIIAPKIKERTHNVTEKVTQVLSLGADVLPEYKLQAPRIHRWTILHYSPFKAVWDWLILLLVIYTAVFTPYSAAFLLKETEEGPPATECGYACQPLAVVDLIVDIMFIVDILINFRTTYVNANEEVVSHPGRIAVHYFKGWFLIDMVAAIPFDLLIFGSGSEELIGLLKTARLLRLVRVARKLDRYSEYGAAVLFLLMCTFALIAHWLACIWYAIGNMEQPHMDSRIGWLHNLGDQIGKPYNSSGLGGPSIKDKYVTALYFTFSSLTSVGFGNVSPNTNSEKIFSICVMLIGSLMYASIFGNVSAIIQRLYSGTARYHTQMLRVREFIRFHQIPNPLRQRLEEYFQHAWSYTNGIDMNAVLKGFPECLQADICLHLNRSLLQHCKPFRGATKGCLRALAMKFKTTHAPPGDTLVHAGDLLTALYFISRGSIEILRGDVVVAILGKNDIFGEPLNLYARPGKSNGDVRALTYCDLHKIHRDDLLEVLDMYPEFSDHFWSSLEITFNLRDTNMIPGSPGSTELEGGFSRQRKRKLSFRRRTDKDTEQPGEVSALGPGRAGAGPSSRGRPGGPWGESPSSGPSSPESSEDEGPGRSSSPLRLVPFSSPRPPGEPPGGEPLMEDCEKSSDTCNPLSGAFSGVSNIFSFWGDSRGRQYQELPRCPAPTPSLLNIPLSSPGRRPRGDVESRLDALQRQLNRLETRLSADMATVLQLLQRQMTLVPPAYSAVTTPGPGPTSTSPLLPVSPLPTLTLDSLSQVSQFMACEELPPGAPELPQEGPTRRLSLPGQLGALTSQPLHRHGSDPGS
T1 sequence (Q2M2I8 27-365 limits assumed): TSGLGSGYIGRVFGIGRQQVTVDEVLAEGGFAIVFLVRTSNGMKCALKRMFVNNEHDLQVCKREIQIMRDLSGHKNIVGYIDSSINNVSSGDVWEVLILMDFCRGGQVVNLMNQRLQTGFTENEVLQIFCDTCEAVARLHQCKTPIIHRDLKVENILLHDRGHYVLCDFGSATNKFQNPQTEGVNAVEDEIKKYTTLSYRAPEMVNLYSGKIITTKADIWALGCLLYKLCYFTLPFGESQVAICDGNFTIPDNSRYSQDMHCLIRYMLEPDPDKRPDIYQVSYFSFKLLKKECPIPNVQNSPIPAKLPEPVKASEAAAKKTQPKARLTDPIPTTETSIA

IC50 [1] [nM]	Kp ([4]; male, ICR, mouse, brain/plasma, po, i.g. (10 mg/kg))	AUC(0-t) ([4]; male, ICR, mouse, plasma, po, i.g. (10 mg/kg), read-out: Plasma AUC0-t) [ng·h/mL]	Brain penetrability (in words) [4]	Brain tissue AUC0-t ([4]; i.g. (10 mg/kg)) [ng·h/g]	F [5] [%]	SMILES	inhibition at 40 µM ([2]; human, CHO cells stably expressing hERG potassium channel, at 40 μM, read-out: Inhibition rate at the highest concentration tested (hERG potassium channel current)) [%]	IC50 ([2]; read-out: IC50 (hERG potassium channel current)) [nM]	Course of analgesic efficacy over time [3]	Effect on pain threshold (MPT) of mice after SNL modeling [3]	Efficacy compared with LX-9211 ([3]; at 3 and 6 hours after the administration)	Pharmacodynamic activity as an analgesic compared with LX-9211 ([3]; overall conclusion)
10.9	64.5	572	high brain penetrability	36853	–	C=C(C)CC(C)(N)COc1ccc(-c2ccnc(C(F)F)c2)nc1C(F)F (single isomer, unassigned) [Compound 2]	86.6 ± 1.77	8750	tended to be stable	effectively increased the pain threshold	better efficacy than LX-9211	better pharmacodynamic activity than LX-9211
–	–	–	–	–	113 ± 6.9	COC(=O)Nc1cc(-c2ccc(OC[C@@](C)(N)CC(C)(C)F)c(C(F)F)n2)ccn1 [Compound 9]	–	–	–	–	–	–
13.7	–	–	–	–	–	COC(=O)Nc1cc(-c2ccc(OC[C@@](C)(N)CC(C)(C)F)c(C)n2)ccn1 [Compound 10]	–	–	–	–	–	–
–	–	–	–	110424	22.2 ± 8.1	CC(C)C[C@](C)(N)COc1ccc(-c2ccnc(C(F)F)c2)nc1C(F)F [LX-9211, reference compound]	–	–	efficacy gradually decreased thereafter	effectively increased the pain threshold	–	–
